The experiment concerns the target T1, Human TRPC6 (Homo sapiens, UniProt Q9Y210).
T1 construct: expressed in transfected cells
T1 sequence (Q9Y210 1-931): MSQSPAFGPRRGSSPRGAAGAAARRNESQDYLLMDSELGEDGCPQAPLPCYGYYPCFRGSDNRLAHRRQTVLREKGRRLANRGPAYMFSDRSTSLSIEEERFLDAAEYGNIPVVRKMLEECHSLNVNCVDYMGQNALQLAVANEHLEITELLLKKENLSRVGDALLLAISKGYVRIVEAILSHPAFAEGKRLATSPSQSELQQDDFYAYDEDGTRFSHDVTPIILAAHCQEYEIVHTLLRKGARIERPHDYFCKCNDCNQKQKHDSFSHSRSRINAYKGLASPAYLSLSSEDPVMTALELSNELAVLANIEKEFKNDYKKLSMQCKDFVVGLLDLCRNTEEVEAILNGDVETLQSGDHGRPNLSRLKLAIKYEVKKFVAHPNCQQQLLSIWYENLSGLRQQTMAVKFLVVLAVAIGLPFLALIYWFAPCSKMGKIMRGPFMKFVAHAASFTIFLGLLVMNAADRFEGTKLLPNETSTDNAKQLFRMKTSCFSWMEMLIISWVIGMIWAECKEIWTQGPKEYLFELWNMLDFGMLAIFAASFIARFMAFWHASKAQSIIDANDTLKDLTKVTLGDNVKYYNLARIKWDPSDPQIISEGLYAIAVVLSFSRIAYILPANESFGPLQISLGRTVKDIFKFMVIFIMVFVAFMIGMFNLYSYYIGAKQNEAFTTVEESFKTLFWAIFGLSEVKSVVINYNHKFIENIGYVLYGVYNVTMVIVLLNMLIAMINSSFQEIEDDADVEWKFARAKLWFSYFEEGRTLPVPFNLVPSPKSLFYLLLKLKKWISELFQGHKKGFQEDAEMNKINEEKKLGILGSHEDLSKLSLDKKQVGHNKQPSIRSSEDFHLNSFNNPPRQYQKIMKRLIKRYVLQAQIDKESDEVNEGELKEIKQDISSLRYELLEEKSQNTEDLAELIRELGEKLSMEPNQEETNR
The experiment is described as follows: Evaluation of TRPC6 channel inhibitory activity (1), FLIPR Calcium 5 Assay Kit, OAG stimulation (Compound Nos. 1-1293). In kind it is cell-based. As to conditions: Human TRPC6 stably-expressing cells, OAG 30 μM, FLIPR Calcium 5 Assay Kit; read-out: Inhibitory activity (pIC50 class) (converted). The procedure, abridged:
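Stable human TRPC6 line; fluorescent Ca2+ dye loading, then 20 min compound exposure before 30 μM OAG trigger. Peak-minus-baseline signal converted to % inhibition against untreated and unstimulated wells; potency given as pIC50 band.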

Bounds are passed on as bounds.

In the case of `Cn1nc(-c2nccs2)cc1Oc1cc(C#N)ccc1-c1ncc([C@H](O)CN)cn1` [compound 574, 4-[5-[(1S)-2-amino-1-hydroxyethyl]pyrimidin-2-yl]-3-[2-methyl-5-(1,3-thiazol-2-yl)pyrazol-3-yl]oxybenzonitrile], the IC50 was 10 to 1000 nM.
As for `CC(C)Nc1cc(Oc2cc(C#N)ccc2-c2ccc(CCN)cn2)n(C)n1` [compound 575, 4-[5-(2-aminoethyl)pyridin-2-yl]-3-[2-methyl-5-(propan-2-ylamino)pyrazol-3-yl]oxybenzonitrile], the figure is less than 10 nM.
For `Cn1nc(N)cc1Oc1cc(C#N)ccc1-c1ccc([C@H](O)CN)cn1` [compound 576, 4-[5-[(1S)-2-amino-1-hydroxyethyl]pyridin-2-yl]-3-(5-amino-2-methylpyrazol-3-yl)oxybenzonitrile] the value was greater than 1000 nM.
On to `Cn1nc(N)cc1Oc1cc(C#N)ccc1-c1ccc(CCN)cn1` [compound 577, 4-[5-(2-aminoethyl)pyridin-2-yl]-3-(5-amino-2-methylpyrazol-3-yl)oxybenzonitrile], for which the IC50 was 10 to 1000 nM.
For `Cc1cc(Oc2cc(C#N)ccc2-c2ccc(CCCN)cc2)cc(N2CCOCC2)n1` [compound 578, 4-[4-(3-aminopropyl)phenyl]-3-(2-methyl-6-morpholin-4-ylpyridin-4-yl)oxybenzonitrile] the value was 10 to 1000 nM.
As for `Cn1nc(-c2ccccc2)cc1Oc1cc(C#N)ccc1-c1ccc(CCCN)cc1` [compound 579, 4-[4-(3-aminopropyl)phenyl]-3-(2-methyl-5-phenylpyrazol-3-yl)oxybenzonitrile], the figure is 10 to 1000 nM.
For `Cc1cc(Oc2cc(C#N)ccc2-c2ccc([C@H](O)CN)cn2)cc(C2CCOCC2)n1` [compound 580, 4-[5-[(1S)-2-amino-1-hydroxyethyl]pyridin-2-yl]-3-[2-methyl-6-(oxan-4-yl)pyridin-4-yl]oxybenzonitrile], the IC50 is 10 to 1000 nM.
Consider `Cn1nc(C2CC2)cc1Oc1cc(C#N)ccc1-c1nnc(CN)s1` [compound 582, 4-[5-(aminomethyl)-1,3,4-thiadiazol-2-yl]-3-(5-cyclopropyl-2-methylpyrazol-3-yl)oxybenzonitrile], for which the IC50 was greater than 1000 nM.
As for `Cn1nc(-c2ccccc2)cc1Oc1cc(C#N)ccc1-c1nnc(CN)s1` [compound 583, 4-[5-(aminomethyl)-1,3,4-thiadiazol-2-yl]-3-(2-methyl-5-phenylpyrazol-3-yl)oxybenzonitrile], the figure is greater than 1000 nM.
Take `Cn1nc(C2CC2)cc1Oc1cc(C#N)ccc1-c1ncc(CN)o1` [compound 584, 4-[5-(aminomethyl)-1,3-oxazol-2-yl]-3-(5-cyclopropyl-2-methylpyrazol-3-yl)oxybenzonitrile]: the IC50 is greater than 1000 nM.
On to `Cn1nc(C2CC2)cc1Oc1cc(C#N)ccc1-c1cc(OCCCN)ccn1` [compound 585, 4-[4-(3-aminopropoxy)pyridin-2-yl]-3-(5-cyclopropyl-2-methylpyrazol-3-yl)oxybenzonitrile], for which the IC50 was greater than 1000 nM.
For `Cn1nc(C2CC2)cc1Oc1cc(C#N)ccc1-c1cc(NCCCO)ccn1` [compound 586, 3-(5-cyclopropyl-2-methylpyrazol-3-yl)oxy-4-[4-(3-hydroxypropylamino)pyridin-2-yl]benzonitrile] the value was greater than 1000 nM.
For `Cn1nc(-c2ccccn2)cc1Oc1cc(C#N)ccc1-c1cc(CCN)ccn1` [compound 587, 4-[4-(2-aminoethyl)pyridin-2-yl]-3-(2-methyl-5-pyridin-2-ylpyrazol-3-yl)oxybenzonitrile] the value was less than 10 nM.
As for `Cn1nc(-c2ncco2)cc1Oc1cc(C#N)ccc1-c1ccc([C@H](O)CN)cn1` [compound 588, 4-[5-[(1S)-2-amino-1-hydroxyethyl]pyridin-2-yl]-3-[2-methyl-5-(1,3-oxazol-2-yl)pyrazol-3-yl]oxybenzonitrile], the figure is 10 to 1000 nM; as for `Cn1nc(-c2ccccn2)cc1Oc1cc(C#N)ccc1-c1ccc(CN)n2cnnc12` [compound 589, 4-[5-(aminomethyl)-[1,2,4]triazolo[4,3-a]pyridin-8-yl]-3-(2-methyl-5-pyridin-2-ylpyrazol-3-yl)oxybenzonitrile], 10 to 1000 nM.
With `Cc1cc(Oc2cc(C#N)ccc2-c2ccc(CN)n3cnnc23)cc(N2CCOCC2)n1` [compound 590, 4-[5-(aminomethyl)-[1,2,4]triazolo[4,3-a]pyridin-8-yl]-3-(2-methyl-6-morpholin-4-ylpyridin-4-yl)oxybenzonitrile], the IC50 was greater than 1000 nM.
`Cc1cc(Oc2cc(C#N)ccc2-c2ccc([C@H](O)CN)cn2)cc(OC2COC2)n1` [compound 591, 4-[5-[(1S)-2-amino-1-hydroxyethyl]pyridin-2-yl]-3-[2-methyl-6-(oxetan-3-yloxy)pyridin-4-yl]oxybenzonitrile]: the IC50 is greater than 1000 nM.
As for `Cn1nc(-c2nccs2)cc1Oc1cc(C#N)ccc1-c1ncc(CN)cn1` [compound 592, 4-[5-(aminomethyl)pyrimidin-2-yl]-3-[2-methyl-5-(1,3-thiazol-2-yl)pyrazol-3-yl]oxybenzonitrile], the IC50 was less than 10 nM.
Take `Cc1cc(Oc2cc(C#N)ccc2-c2nnc(CN)s2)cc(N2CCOCC2)n1` [compound 593, 4-[5-(aminomethyl)-1,3,4-thiazol-2-yl]-3-(2-methyl-6-morpholin-4-ylpyridin-4-yl)oxybenzonitrile]: the IC50 was greater than 1000 nM.
For `Cn1nc(C2CC2)cc1Oc1cc(C#N)ccc1-c1cccc2c(N)noc12` [compound 594, 4-(3-amino-1,2-benzoxazol-7-yl)-3-(5-cyclopropyl-2-methylpyrazol-3-yl)oxybenzonitrile] the value was greater than 1000 nM; for `Cc1cc(Oc2cc(C#N)ccc2-c2ncc(CCN)cn2)cc(-c2nccs2)n1` [compound 595, 4-[5-(2-aminoethyl)pyrimidin-2-yl]-3-[2-methyl-6-(1,3-thiazol-2-yl)pyridin-4-yl]oxybenzonitrile], 10 to 1000 nM; for `Cc1cc(Oc2cc(C#N)ccc2-c2ncc(CCN)cn2)cc(-c2ncco2)n1` [compound 596, 4-[5-(2-aminoethyl)pyrimidin-2-yl]-3-[2-methyl-6-(1,3-oxazol-2-yl)pyridin-4-yl]oxybenzonitrile], 10 to 1000 nM.
For `Cc1cc(Oc2cc(C#N)ccc2-c2ncc(CCN)cn2)cc(-c2cnccn2)n1` [compound 597, 4-[5-(2-aminoethyl)pyrimidin-2-yl]-3-(2-methyl-6-pyrazin-2-ylpyridin-4-yl)oxybenzonitrile] the value was 10 to 1000 nM.
For `Cc1nc(Oc2cc(C#N)ccc2-c2ncc(CCN)cn2)cc(-c2nccs2)n1` [compound 598, 4-[5-(2-aminoethyl)pyrimidin-2-yl]-3-[2-methyl-6-(1,3-thiazol-2-yl)pyrimidin-4-yl]oxybenzonitrile] the value was 10 to 1000 nM; for `Cc1nc(Oc2cc(C#N)ccc2-c2ncc(CCN)cn2)cc(-c2ccccn2)n1` [compound 599, 4-[5-(2-aminoethyl)pyrimidin-2-yl]-3-(2-methyl-6-pyridin-2-ylpyrimidin-4-yl)oxybenzonitrile], less than 10 nM; for `Cc1cc(Oc2cc(C#N)ccc2-c2ncc([C@H](O)CN)cn2)cc(-c2nc(C)cs2)n1` [compound 600, 4-[5-[(1S)-2-amino-1-hydroxyethyl]pyrimidin-2-yl]-3-[2-methyl-6-(4-methyl-1,3-thiazol-2-yl)pyridin-4-yl]oxybenzonitrile], 10 to 1000 nM.
As for `Cc1cc(Oc2cc(C#N)ccc2-c2ncc([C@H](O)CN)cn2)cc(-c2ncc(C)s2)n1` [compound 601, 4-[5-[(1S)-2-amino-1-hydroxyethyl]pyrimidin-2-yl]-3-[2-methyl-6-(5-methyl-1,3-thiazol-2-yl)pyridin-4-yl]oxybenzonitrile], the IC50 is 10 to 1000 nM.
As for `Cc1nc(Oc2cc(C#N)ccc2-c2ncc(CCN)cn2)cc(-c2ncc(C)s2)n1` [compound 602, 4-[5-(2-aminoethyl)pyrimidin-2-yl]-3-[2-methyl-6-(5-methyl-1,3-thiazol-2-yl)pyrimidm-4-yl]oxybenzonitrile], the figure is 10 to 1000 nM; as for `Cc1nc(Oc2cc(C#N)ccc2-c2ccc([C@H](O)CN)cn2)cc(-c2nccs2)n1` [compound 603, 4-[5-[(1S)-2-amino-1-hydroxyethyl]pyridin-2-yl]-3-[2-methyl-6-(1,3-thiazol-2-yl)pyrimidin-4-yl]oxybenzonitrile], 10 to 1000 nM.

Source of the values: US20230167073A1 (Teijin Pharma Limited, priority 2020, published 2023).
